The target of one experiment is T1, 15-LOX-2 (Homo sapiens, UniProt O15296).
T1 sequence (O15296 1-676): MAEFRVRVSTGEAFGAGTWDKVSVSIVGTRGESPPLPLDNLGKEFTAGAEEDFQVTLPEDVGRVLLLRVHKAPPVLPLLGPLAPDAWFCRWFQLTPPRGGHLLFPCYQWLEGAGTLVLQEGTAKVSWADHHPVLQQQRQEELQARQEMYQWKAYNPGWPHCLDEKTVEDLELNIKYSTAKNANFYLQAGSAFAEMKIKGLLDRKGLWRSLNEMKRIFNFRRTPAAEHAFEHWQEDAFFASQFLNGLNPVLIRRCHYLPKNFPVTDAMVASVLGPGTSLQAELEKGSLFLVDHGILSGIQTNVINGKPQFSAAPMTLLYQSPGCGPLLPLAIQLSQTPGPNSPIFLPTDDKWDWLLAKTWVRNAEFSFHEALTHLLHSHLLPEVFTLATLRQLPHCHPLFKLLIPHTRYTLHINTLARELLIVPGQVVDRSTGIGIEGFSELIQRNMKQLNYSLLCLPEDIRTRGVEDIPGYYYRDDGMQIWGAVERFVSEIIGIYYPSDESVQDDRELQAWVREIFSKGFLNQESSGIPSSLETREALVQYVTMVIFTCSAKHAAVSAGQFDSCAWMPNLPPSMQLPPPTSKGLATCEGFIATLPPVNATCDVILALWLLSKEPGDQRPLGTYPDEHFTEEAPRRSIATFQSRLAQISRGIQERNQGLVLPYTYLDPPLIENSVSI
The experiment can be described thus: in vitro 15-LOX-2 inhibition (Table 3). In kind it is biochemical. An excerpt:
(§1) Table 3 provides results for exemplary subject bisindole compounds on 5-LOX, 12-LOX and 15-LOX.

Another experiment deals with T2, 5-LOX (Homo sapiens, UniProt P09917).
T2 sequence (P09917 1-674): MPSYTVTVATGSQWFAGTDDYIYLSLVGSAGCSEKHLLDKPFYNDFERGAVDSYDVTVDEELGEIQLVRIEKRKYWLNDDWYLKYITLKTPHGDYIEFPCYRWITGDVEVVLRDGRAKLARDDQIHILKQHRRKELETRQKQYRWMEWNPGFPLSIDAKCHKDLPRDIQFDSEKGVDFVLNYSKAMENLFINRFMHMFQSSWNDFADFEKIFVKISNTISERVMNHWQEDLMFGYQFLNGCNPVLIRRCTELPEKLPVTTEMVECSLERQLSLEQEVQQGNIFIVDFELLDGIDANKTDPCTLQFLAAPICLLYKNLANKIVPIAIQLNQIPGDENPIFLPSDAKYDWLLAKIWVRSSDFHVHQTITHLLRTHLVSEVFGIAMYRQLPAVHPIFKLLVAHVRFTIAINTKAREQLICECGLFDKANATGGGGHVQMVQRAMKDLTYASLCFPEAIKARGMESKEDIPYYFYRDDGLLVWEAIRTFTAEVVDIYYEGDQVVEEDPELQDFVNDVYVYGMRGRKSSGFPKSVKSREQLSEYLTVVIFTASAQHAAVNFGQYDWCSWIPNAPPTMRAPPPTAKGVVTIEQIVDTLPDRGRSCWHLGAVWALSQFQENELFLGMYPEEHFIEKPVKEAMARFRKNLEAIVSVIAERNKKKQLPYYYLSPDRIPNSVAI
In words: fluorescence-based enzyme assay of human 5-LOX (Table 3). The format is biochemical.
Text: as §1

The target in the next experiment is T3, human 12-LOX (Homo sapiens, UniProt P18054).
T3 construct: ferric oxidation of xylenol orange from arachidonic acid in human blood platelets; endogenous in cells; host or cells: human blood platelets
T3 sequence (P18054 1-663): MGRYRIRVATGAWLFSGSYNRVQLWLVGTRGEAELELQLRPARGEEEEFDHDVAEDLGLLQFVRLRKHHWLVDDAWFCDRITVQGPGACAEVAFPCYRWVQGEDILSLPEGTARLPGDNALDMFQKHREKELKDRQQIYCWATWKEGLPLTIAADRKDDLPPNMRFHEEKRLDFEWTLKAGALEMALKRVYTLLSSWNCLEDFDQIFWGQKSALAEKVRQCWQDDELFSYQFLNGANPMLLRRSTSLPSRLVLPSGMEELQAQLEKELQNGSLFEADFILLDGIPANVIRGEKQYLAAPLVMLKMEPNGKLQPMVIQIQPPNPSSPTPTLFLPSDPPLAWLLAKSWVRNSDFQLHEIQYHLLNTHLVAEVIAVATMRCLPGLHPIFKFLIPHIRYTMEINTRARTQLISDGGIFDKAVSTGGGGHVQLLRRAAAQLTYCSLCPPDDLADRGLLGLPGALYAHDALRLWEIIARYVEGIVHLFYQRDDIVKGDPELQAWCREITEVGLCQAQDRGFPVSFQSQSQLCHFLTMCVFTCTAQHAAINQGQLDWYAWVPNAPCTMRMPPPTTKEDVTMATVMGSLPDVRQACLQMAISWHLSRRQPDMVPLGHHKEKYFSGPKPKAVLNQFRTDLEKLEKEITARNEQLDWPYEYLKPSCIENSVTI
The experiment can be described thus: colorimetric platelet 12-LOX activity assay (ferric oxidation of xylenol orange, human blood platelets). In kind it is cell-based.
Text: as §1

Experiment [1] relates to amyloid-beta (Abeta) formation. The experiment can be described thus: secreted Abeta40/Abeta42 ELISA in N2A-APPswe cells. In kind it is cell-based. The conditions noted are these: Mus musculus, 24 hours treatment. As to the method:
A neuronal cell-based screening assay capable of sensitive and selective detection of secreted Aβ40 and Aβ42 was established. Mouse neuro-2A neuroblastoma (N2A) cells were co-transfected with pSV2neo selection plasmid and a human APP gene carrying the K670N/M671L Swedish mutations (APPswe) that are known to cause early-onset AD. The transfected cells were selected in G418-containing medium, and single colonies were analyzed for the expression of APPswe. The resulting stable cell line, N2A-APPswe, provides a platform for screening inhibitors that alter Aβ formation from the human APPswe gene. Levels of secreted Aβ40 and Aβ42 in the medium can be quantified by ELISA kits. Table 4 provides results for exemplary subject bisindole compounds on amyloid-beta (Abeta) formation at 5 μM after 24 hours treatment in N2A-APPswe cells.
(In an ELISA, binding on a coated surface is turned into a signal by an enzyme label.)

Setting [2] is: read-out: Abeta 40 formation (% of control).
The mark [3] stands for this setting: read-out: Abeta 42 formation (% of control).

Where two headings read alike, the source gives them in different places.

As usually defined, the inhibition is the drop in the measured response relative to a control, in per cent. A lower inhibition goes with a response near the control. In the case of `Fc1ccc2[nH]c3c(OC[C@@H]4CCCN4)c4[nH]c5ccc(F)cc5c4cc3c2c1`, the results for the inhibition at 3 µM on 15-LOX-2, against 5-LOX (3 μM) and against human 12-LOX (3 μM) were 55%, 92% and 88%, respectively.
On the same counts, the results for `Fc1ccc2[nH]c3c(OC[C@H]4CCCN4)c4[nH]c5ccc(F)cc5c4c(Cl)c3c2c1` are 45%, 91% and 80%.
Regarding `Cl.Fc1ccc2[nH]c3c(OCC4CCCN4)c4[nH]c5ccc(F)cc5c4cc3c2c1` (centres unmarked), the “15-LOX-2 % Inhibition at 3 μM” value on 15-LOX-2 (3 µM) is on record as 63%. In addition, the “5-LOX % Inhibition at 3 μM” value on 5-LOX (3 μM) is recorded as 95%. Also, the “12-LOX % Inhibition at 3 μM” value on human 12-LOX (3 μM) came out at 77%.
`Cc1c2[nH]c3ccccc3c2cc2c1[nH]c1ccccc12`: the inhibition at 3 µM worked out at 16% against 15-LOX-2, 52% against 5-LOX (3 μM) and 76% against human 12-LOX (3 μM).
With `CCN(CC)CCOC(=O)c1ccc2[nH]c3c(OC)c4[nH]c5ccc(C(=O)OCCN(CC)CC)cc5c4cc3c2c1`, the inhibition at 10 µM against 5-LOX (10 μM (footnote *)) came out at 80%; on human 12-LOX (10 μM (footnote *)), 12%.
`Fc1ccc2[nH]c3c(OCC4CCCN4)c4[nH]c5ccc(F)cc5c4c(Cl)c3c2c1` (centres unmarked): the activity at 5 µM is 86% in experiment [1] (setting [2]) and 62% in experiment [1] (setting [3]).
On the same counts, the results for `Fc1ccc2[nH]c3c(OCCN4CC[C@H](F)C4)c4[nH]c5ccc(F)cc5c4cc3c2c1` are 75% and 35%.
In the same order, the values of `Fc1ccc2[nH]c3c(OCC4CCCO4)c4[nH]c5ccc(F)cc5c4cc3c2c1` (centres unmarked) are 74% and 42%.
As to `Fc1ccc2[nH]c3c(OCCn4cncn4)c4[nH]c5ccc(F)cc5c4cc3c2c1`, the activity at 5 µM in experiment [1] (setting [2]) turned out to be 53%; in experiment [1] (setting [3]), 30%.
Consider `COc1c2[nH]c3ccc(F)cc3c2c(N2CCOCC2)c2c1[nH]c1ccc(F)cc12`, for which the activity at 5 µM was 77% in experiment [1] (setting [2]) and 43% in experiment [1] (setting [3]).
On the same counts, the results for `Fc1ccc2[nH]c3c(C(F)(F)F)c4[nH]c5ccc(F)cc5c4cc3c2c1` are 81% and 47%.
On the same counts, the results for `Fc1ccc2[nH]c3c(OCCN4CCCCC4)c4[nH]c5ccc(F)cc5c4cc3c2c1` are 82% and 19%.
For the compound `Cc1nnn(CCOc2c3[nH]c4ccc(F)cc4c3cc3c2[nH]c2ccc(F)cc23)n1`, the results for the activity at 5 µM in experiment [1] (setting [2]) and in experiment [1] (setting [3]) were 66% and 36%, respectively.
With `Cc1nnnn1CCOc1c2[nH]c3ccc(F)cc3c2cc2c1[nH]c1ccc(F)cc12`, the figures for the activity at 5 µM in experiment [1] (setting [2]) and in experiment [1] (setting [3]) were 66% and 36%, respectively.
In the same order, the values of `F[C@@H]1CN[C@H](COc2c3[nH]c4ccc(Cl)cc4c3cc3c2[nH]c2ccc(Cl)cc23)C1` are 59% and 3%.
On the same counts, the results for `c1ccc2c(c1)[nH]c1c(OCCCN3CCOCC3)c3[nH]c4ccccc4c3cc12` are 95% and 25%.
In the same order, the values of `N=C(N)NCCCOc1c2[nH]c3ccc(Cl)cc3c2cc2c1[nH]c1ccc(Cl)cc12` are 77% and 8%.
`CN(C)CCOc1c2[nH]c3ccc(F)cc3c2cc2c1[nH]c1ccc(F)cc12` [drawing 7]: the inhibition at 3 µM was found to be 46% at 15-LOX-2, 90% on 5-LOX (3 μM) and 78% at human 12-LOX (3 μM).
In the same order, the values of `Clc1ccc2[nH]c3c(OCCCn4cncn4)c4[nH]c5ccc(Cl)cc5c4cc3c2c1` [drawing 8] are 25%, 85% and 89%.
On the same counts, the results for `Nc1nnn(CCOc2c3[nH]c4ccc(Cl)cc4c3cc3c2[nH]c2ccc(Cl)cc23)n1` [drawing 9] are 19%, 70% and 77%.
On to `CN(C)CCOc1c2[nH]c3ccc(F)cc3c2cc2c1[nH]c1ccc(F)cc12` [drawing 24], for which the activity at 5 µM came to 79% in experiment [1] (setting [2]) and 76% in experiment [1] (setting [3]).
In the same order, the values of `Clc1ccc2[nH]c3c(OCCCn4cncn4)c4[nH]c5ccc(Cl)cc5c4cc3c2c1` [drawing 25] are 66% and 54%.
`Nc1nnn(CCOc2c3[nH]c4ccc(Cl)cc4c3cc3c2[nH]c2ccc(Cl)cc23)n1` [drawing 26]: the activity at 5 µM in experiment [1] (setting [2]) is 86%; in experiment [1] (setting [3]), 75%.
As for `Nc1nnnn1CCOc1c2[nH]c3ccc(Cl)cc3c2cc2c1[nH]c1ccc(Cl)cc12` [drawing 27], the activity at 5 µM stood at 81% in experiment [1] (setting [2]) and 71% in experiment [1] (setting [3]).
On the same counts, the results for `N=C(N)NCCCOc1c2[nH]c3ccc(F)cc3c2cc2c1[nH]c1ccc(F)cc12` [drawing 28] are 82% and 58%.
In the same order, the values of `Fc1ccc2[nH]c3c(OC4CCNC4)c4[nH]c5ccc(F)cc5c4cc3c2c1` (centres unmarked) [drawing 29] are 71% and 9%.
On the same counts, the results for `Clc1ccc2[nH]c3c(OCC4CCCN4)c4[nH]c5ccc(Cl)cc5c4cc3c2c1` (centres unmarked) [drawing 30] are 69% and 59%.
Regarding `Fc1ccc2[nH]c3c(OCC4CCCN4)c4[nH]c5ccc(F)cc5c4c(C(F)(F)F)c3c2c1` (centres unmarked) [drawing 32], the activity at 5 µM in experiment [1] (setting [2]) turned out to be 89%; in experiment [1] (setting [3]), 69%.
In the same order, the values of `CN(C)CCOc1c2[nH]c3ccc(F)cc3c2c(Cl)c2c1[nH]c1ccc(F)cc12` [drawing 33] are 68% and 55%.
With `Fc1ccc2[nH]c3c(OC[C@@H]4C[C@H](F)CN4)c4[nH]c5ccc(F)cc5c4cc3c2c1` [drawing 34], the activity at 5 µM in experiment [1] (setting [2]) came out at 93%; in experiment [1] (setting [3]), 67%.
On the same counts, the results for `CCOC(=O)c1ccc2[nH]c3c(O[C@H]4CCNC4)c4[nH]c5ccc(C(=O)OCC)cc5c4cc3c2c1` [drawing 35] are 70% and 48%.
Consider `Fc1ccc2[nH]c3c(OCC4CCCN4)c4[nH]c5ccc(F)cc5c4cc3c2c1` (centres unmarked) [drawing 36], for which the activity at 5 µM amounted to 65% in experiment [1] (setting [2]) and 52% in experiment [1] (setting [3]).

(Values after patent publication US20130345214A1, “Lipoxygenase Inhibitors” (SRI International, Inc., priority 2011, published 2013).)
